This series can be described thus: Tank-mix compatibility test of dodine 400 SC with another pesticide or adjuvant. Format: physicochemical. Particulars: dodine 400 SC 1.25 l/200 l water plus other pesticide or adjuvant, observed after mixing for 30 minutes. The procedure: Test protocols for evaluating the compatibility of pesticide active ingredients and adjuvants are readily available and known to a person skilled in the art. A method suitable for use in the present invention is as follows: fill a 250 ml beaker with 200 ml of well water (temperature 15-17° C., water hardness 8° dH corresponding to 80 mg calcium oxide/l). […] Add a magnetic stirrer to the beaker. Stir the suspension for approximately 5 minutes at a speed of rotation of 700 rotations per minute. Add a mixing partner, such as an adjuvant or second plant protection product to the suspension. Stir the suspension for an additional 15 minutes. Stop stirring when a total stirring time of 20 minutes is obtained. Let the suspension stand unstirred for a few minutes. Then check for any separation, sediment, crystallization or flocculation. Note down the results of the visual observation. Stir the suspension for a further 20 minutes. Stop the stirring. After 2 hours have lapsed assess the compatibility for a second time. Upon finishing the second observation, pour the whole suspension over a 100 μm sieve. Note down if residue is present on the sieve.
Tank-mixes comprising dodine without acetate were prepared. […] Mixing was stopped.
As a comparison, the same tank-mixes were prospered, this time comprising dodine with acetate (A′-E′). […] Mixing was stopped after 30 minutes.

Where [1] appears, read: with sodium acetate 0.36 kg/200 l.

With `COc1cccc(C(=O)NN(C(=O)c2cc(C)cc(C)c2)C(C)(C)C)c1C` [methoxyfenozide, benzoic acid, 3-methoxy-2-methyl-, 2-(3,5-dimethylbenzoyl)-2-(1,1-dimethylethyl)hydrazide], the Compatibility test entry is, setting by setting: under setting [1], “improved the compatibility”; (without compatibility agent) “not possible due to incompatibility problems”.

For the compound `Cc1cc(C)nc(Nc2ccccc2)n1` [pyrimethanil, N-(4,6-dimethylpyrimidin-2-yl)aniline], the Compatibility test entry by setting is: under setting [1], “improved the compatibility”; (without compatibility agent) “not possible due to incompatibility problems”.

Regarding `CCC(C)(C)C(=O)OC1=C(c2ccc(Cl)cc2Cl)C(=O)OC12CCCCC2` [spirodiclofen], the Compatibility test result was “improved the compatibility” under setting [1] and “not possible due to incompatibility problems” (without compatibility agent).

Source of the values: patent publication US9247732B2, “Agrochemical formulations containing a compatibility agent” (priority 2011, dated 2016).
